As a reminder, the IC50 is the concentration that gives 50% inhibition. The term Emax denotes the size of the effect at its maximum, as opposed to the concentration needed.

In one test the test system is HEK293 cells. As to the kind of experiment: Redox-based assay to assess HEK293 viability. It counts as cell-based, human. The conditions noted are these: 48 hours exposure, highest test concentration 87 μM, EdU value estimated, relative to Emax plateau of 57%. On the procedure:
To determine the effect of the nucleoside analogues against a replicating mammalian cell line, analogues were tested against HEK293 cells, utilising a REDOX-based metabolic assay to assess cell viability as previously described. […] Experiments were performed over two biological replicates.

Test [1] deals with T. cruzi intracellular amastigotes. The test is described as follows: Image-based assay of the number of T. cruzi infected cells (intracellular amastigotes in 3T3 host cells). Type of test: cell-based, Trypanosoma cruzi. The conditions noted are these: for T. cruzi Wash off IC50 value: compound wash off, further 72 hours without compound; for inhibition at 183 µM: read-out: inhibition of T. cruzi growth at highest test concentration. As to the method:
(§1) Parasites and host cells were maintained as outlined previously. Briefly, host 3T3 fibroblasts (ATCC, CCL-92) were grown in RPMI medium (Thermo Fisher Scientific, USA) with no phenol red, supplemented with 10% FBS (Thermo Fisher Scientific, USA) and incubated at 37°C in 5% CO2. Host cells were harvested at 70% confluency and were split every 2–3 days in 175 cm^2 flasks. 3T3 cells were cultured up to passage 7 as contact inhibition was reduced or lost at higher passages. Prior to infection with T. cruzi trypomastigotes, host cells were seeded at 1.2 x 10^6 cells in 75 cm^2 or 4 x 10^5 cells in 25 cm^2 flasks and grown for 24 hours before parasite addition. Parasites were added at a multiplicity of infection (MOI) of 10:1 and incubated for 24 hours before non-infected trypomastigotes were washed off the host cell bed with PBS supplemented with Ca^2+ and Mg^2+ (Thermo Fisher Scientific, USA). Incubation was continued for a further 3 days, until tissue culture trypomastigotes began to egress from host cells. Egressed parasites were used for assays or to continue the infective life cycle in vitro.
The activity of the nucleoside analogues against T. cruzi intracellular amastigotes following 24, 48 hours exposure and compound wash off, was determined using image-based techniques as previously described. Briefly, 14-point serial dilutions of the compounds in 100% DMSO were prepared and then further diluted in sterile water at a ratio of 1:21 compound: water. Five microliters of the diluted compounds were added to wells of T. cruzi infected host cells, using a MiniTrak compound handling device (Perkin Elmer, USA) with final concentrations in the plate ranging from 183 μM to 4.6 x 10^−4 μM. All experiments were performed with two separate biological replicates.
IC50 values for inhibitory activity of both the nucleoside analogues tested as DNA probes and known inhibitors tested to determine their effect on replication of T. cruzi were calculated in GraphPad Prism 5, using sigmoidal dose response with variable slope. […] The p-value for difference in the % activity at Emax concentrations for compounds with known activity (EdU identified parasites, compared to Hoechst identified parasites) against T. cruzi was determined using GraphPad Prism 5, using an unpaired student’s t-test. […] The Emax for each compound was at least two data points in from the beginning of the plateau of activity in the IC50 curve, as previously described.

The subject of the next test is 3T3 cells. As to the kind of experiment: Image-based assay, effect on 3T3 host cells. It counts as cell-based. The note with it: 48 h, highest test concentration 183 μM. As to the method:
as §1
[…] Briefly, 14-point serial dilutions of the compounds in 100% DMSO were prepared and then further diluted in sterile water at a ratio of 1:21 compound: water. Five microliters of the diluted compounds were added to wells of T. cruzi infected host cells, using a MiniTrak compound handling device (Perkin Elmer, USA) with final concentrations in the plate ranging from 183 μM to 4.6 x 10^−4 μM. All experiments were performed with two separate biological replicates.
Image analysis was performed with a script developed in Columbus software (CHEMICAL LABEL INCORPORATION SCRIPT). Control wells were also imaged at an increased, 60x magnification to show the distribution of staining and the structure of the parasites within host cells. Eight background control wells consisted of infected host cells, fixed and exposed to Hoechst and the click chemistry cocktail, without the addition of the chemical probe EdU. […] The percentage activity of compounds against parasite number / infected cells (identified with Hoechst) was calculated against a positive control of 12 μM of NFX for the parasite and 30 μM of PURO the host cells; and a negative control of 0.47% DMSO. All images taken were not modified and were taken on an Opera, confocal image-based reader.

The next test relates to T. cruzi amastigote DNA. The test is described as follows: Incorporation of pyrimidine nucleoside analogues into T. cruzi amastigote DNA (click chemistry, colocalisation with Hoechst). Type of test: cell-based, Trypanosoma cruzi. On the procedure: T. cruzi infected 3T3 fibroblasts were initially exposed to nucleoside analogues for 48 hours at concentrations ranging from 73 μM to 1.8 x10^-4 μM. Host cell, parasite and compound additions were carried out as previously described. Cells were then stained using a click chemistry azide cocktail, followed by Hoechst to identify nuclear material, as previously reported. The freshly prepared azide cocktail consisted of a final concentration of 5 μM of Alexa Fluor 488 azide (Thermo Fisher Scientific, USA), 1 mM copper sulfate (Sigma Aldrich, USA) and 100 mM sodium ascorbate (Sigma Aldrich, USA), in DPBS. Wells were imaged on an Opera image-based reader (Perkin Elmer, USA) at 20x magnification with 405 nm (defined as Hoechst channel) and 488 nm (defined as Alexa 488 channel) lasers using filter sets/bandwidth (emission) of 450/50 nm and 540/75 nm, respectively. To determine nucleoside analogue incorporation into T. cruzi amastigote DNA, a script was developed utilising the Columbus (PerkinElmer, USA) image-based analysis and data handling platform (CHEMICAL LABEL INCORPORATION SCRIPT). Nucleoside analogues were also tested for DNA incorporation following 2, 4 and 24 hours exposure, at the same concentrations. All experiments were performed in duplicate. The colocalisation of nucleoside analogues and Hoechst (replicating parasites) at each time point (48, 4 and 2 hours) was compared using GraphPad Prism 5.
A CHEMICAL LABEL INCORPORATION SCRIPT developed in Columbus firstly identified Hoechst stained parasites within host cells by spot analysis, utilizing the same building block analysis as we had previously developed to determine T. cruzi infected cells. The physical definition of amastigote DNA was identified by Hoechst, with the only modification being that as there was no cytoplasmic marker, thus segmentation borders in the Hoechst channel were applied, which effectively separated host cells (Fig 2). Further building blocks were added to calculate the intensity of Alexa Fluor 488 within the spots identified by Hoechst, in infected cells. This script was first applied to images to determine the mean fluorescence intensity in the Alexa 488 channel of Hoechst identified parasites, without the addition of the chemical label. The mean plus three times the standard deviation of this intensity was used to define values above background, thus the minimum intensity above background required to identify parasite DNA which successfully incorporated the chemical label. An input box was incorporated into the script, in which this minimum intensity above background was entered. Parameters of the developed script, “CHEMICAL LABEL INCORPORATION” are shown in S1 Table.
• Number of T. cruzi amastigote infected cells (≥5 parasites per cell, identified with Hoechst). • Number of Hoechst identified T. cruzi parasites (in infected cells). • Number of parasites incorporating chemical label (T. cruzi parasites with Alexa 488 intensity above background, in infected cells). • % chemical label incorporation. Alexa 488 spots in infected cells (above background) NO / Hoechst spots in infected cells NO *100 = Percentage colocalisation; where NO = number of objects. • Number of host cells.

Test [2] has as its system T. cruzi intracellular amastigotes. The test is described as follows: Detection of T. cruzi replication following exposure to inhibitors (EdU incorporation vs Hoechst). Type of test: cell-based, Trypanosoma cruzi. The note with it: for IC50: 48 hours exposure, mean ± SD. As to the method: The addition of host cells, parasites and compounds were as described for the T. cruzi image based method previously reported. […] Addition of nuclear and cytoplasmic dyes was undertaken as previously reported and images captured on an Opera confocal image-based system at 20x magnification. Image analysis was performed with a script developed in Columbus software (CHEMICAL LABEL INCORPORATION SCRIPT). Control wells were also imaged at an increased, 60x magnification to show the distribution of staining and the structure of the parasites within host cells. Eight background control wells consisted of infected host cells, fixed and exposed to Hoechst and the click chemistry cocktail, without the addition of the chemical probe EdU. […] All images taken were not modified and were taken on an Opera, confocal image-based reader.

The mark [3] stands for this setting: 24 hours exposure, highest test concentration 183 μM.
The mark [4] stands for this setting: 48 hours incubation, highest test concentration 183 μM.
Setting [5] is: Trypanosoma cruzi, 48 h, 48 hours incubation.
Where [6] appears, read: Trypanosoma cruzi, 48 hours exposure, well-established intracellular infection assay, mean ± SD, POSA value based on sub-optimal effect (Emax 75%), read-out: IC50 value Infected cells (Hoechst).
Setting [7] is: Trypanosoma cruzi, then 0.37 μM EdU for 4 hours, number of EdU incorporating parasites, read-out: IC50 value Amastigotes (EdU).
Where [8] appears, read: Trypanosoma cruzi, number of Hoechst identified parasites in infected cells, read-out: IC50 value Amastigotes (Hoechst).

Each structure is given as a SMILES string. Like-named read-outs stand apart in the source and are kept apart here.

On to `COc1ccc(C[C@H](N)C(=O)N[C@H]2[C@@H](O)[C@H](n3cnc4c(N(C)C)ncnc43)O[C@@H]2CO)cc1` [PURO, puromycin], for which the IC50 is 0.41 ± 0.17 µM in the test on HEK293 cells (Homo sapiens, HEK293); 7.6 ± 1.2 µM in test [1] (Trypanosoma cruzi, 24 hours exposure, highest test concentration 183 μM, read-out: T. cruzi 24 IC50 value); 2.36 ± 0.78 µM in test [1] (Trypanosoma cruzi, 48 hours incubation, highest test concentration 183 μM, read-out: T. cruzi 48 IC50 value); 4.4 ± 0.8 µM in the test with 3T3 cells (Mus musculus, NIH3T3, read-out: Host cell 3T3 IC50 value 48 h). Further, the maximal effect (Emax) in test [1] (Trypanosoma cruzi, 24 hours exposure, read-out: T. cruzi 24 relative Emax (in brackets) (converted)) was 92%; in test [1] (Trypanosoma cruzi, 48 hours incubation, read-out: T. cruzi 48 relative Emax (in brackets) (converted)) it was 100%.
For `C#Cc1cn([C@@H]2O[C@H](CO)[C@@H](O)[C@@H]2Cl)c(=O)[nH]c1=O` [Cl-ara-EdU, (2′S)-chloro-2′-deoxy-5-ethynyl-uridine], the “HEK293 IC50 value” in the test on HEK293 cells is “NA (NA = ≤50% activity at the highest concentration tested and an IC50 value could not be determined)”. For the same compound, in test [1] (setting [3]), the “T. cruzi 24 IC50 value” is “NA (NA = ≤50% activity at the highest concentration tested and an IC50 value could not be determined)”. Moreover, in test [1] (setting [4]), the “T. cruzi Wash off IC50 value” is “NA (NA = ≤50% activity at the highest concentration tested and an IC50 value could not be determined)”; the “T. cruzi 48 IC50 value” was “NA (NA = ≤50% activity at the highest concentration tested and an IC50 value could not be determined)”. Further, in test [1] (setting [5]), the inhibition at 183 µM is at most 50%. Also, the “Host cell 3T3 IC50 value 48 h” value with 3T3 cells is “NA (NA = ≤50% activity at the highest concentration tested and an IC50 value could not be determined)”. Further, the “incorporation into T. cruzi DNA following 48 hours incubation (in words)” value with T. cruzi amastigote DNA is given as “did not”. Besides, the “incorporation (no incorporation observed)” value with T. cruzi amastigote DNA (48 hours, concentrations up to a maximum of 73 μM) is under 20%.
Regarding `CC[C@@H]([C@H](C)O)n1ncn(-c2ccc(N3CCN(c4ccc(OC[C@@H]5CO[C@@](Cn6cncn6)(c6ccc(F)cc6F)C5)cc4)CC3)cc2)c1=O` [POSA, posaconazole], the results for the IC50 in test [1] (setting [6]), in test [2] (setting [7]) and in test [2] (setting [8]) were 0.004 ± 0.0082 µM, 0.0038 ± 0.001 µM and 0.0038 ± 0.001 µM, respectively. Besides, the Emax in test [1] (Trypanosoma cruzi, 48 hours, infected cells (Hoechst), read-out: maximum activity (Emax) against T. cruzi) is 75%. Further, in test [2] (2 hours exposure, 1 μM (250 x the IC50 value), then 1.83 μM EdU 2 hours), the “inhibition of EdU incorporation” value was “no inhibition”.
As for `C#Cc1cn([C@@H]2O[C@H](CO)[C@@H](O)[C@@H]2F)c(=O)[nH]c1=O` [F-ara-EdU, (2S′)-2′-deoxy-2′-fluoro-5-ethynyl-uridine], the “HEK293 IC50 value” in the test on HEK293 cells was “NA (NA = ≤50% activity at the highest concentration tested and an IC50 value could not be determined)”. Further, in test [1] (setting [3]), the “T. cruzi 24 IC50 value” is “NA (NA = ≤50% activity at the highest concentration tested and an IC50 value could not be determined)”. For the same compound, in test [1] (setting [4]), the “T. cruzi Wash off IC50 value” was “NA (NA = ≤50% activity at the highest concentration tested and an IC50 value could not be determined)”; the “T. cruzi 48 IC50 value” was “NA^3 (NA = ≤50% activity at the highest concentration tested and an IC50 value could not be determined)”. In test [1] (Trypanosoma cruzi, 48 h, 73 μM, 48 hours incubation, read-out: inhibition / activity against T. cruzi amastigotes at 73 μM), the inhibition at 73 µM was under 50%. For the same compound, in test [1] (setting [5]), the inhibition at 183 µM was at most 50%. For the same compound, in the test with 3T3 cells, the “Host cell 3T3 IC50 value 48 h” value is “NA (NA = ≤50% activity at the highest concentration tested and an IC50 value could not be determined)”. Further, the “incorporation into parasite DNA following 2 hours exposure” value in the test with T. cruzi amastigote DNA (2 hours exposure) is reported as “No incorporation”. For the same compound, in the test on T. cruzi amastigote DNA (4 hours, 73 μM), the “% of T. cruzi parasites with incorporation” value stood at 36 ± 7.3%. Moreover, the “incorporation into T. cruzi DNA following 48 hours incubation (in words)” value in the test with T. cruzi amastigote DNA is listed as “incorporated”. In addition, in the test on T. cruzi amastigote DNA (48 hours, top concentration 73 μM), the “% of parasites with analogue incorporated” value came to 91 ± 0.23%.
As for `O=C(Cn1ccnc1[N+](=O)[O-])NCc1ccccc1` [BZ, benznidazole], the results for the concentration for half-maximal inhibition (IC50) in test [1] (setting [6]), in test [2] (setting [7]) and in test [2] (setting [8]) were 6.7 ± 0.64 µM, 1.29 ± 0.25 µM and 2.8 ± 0.94 µM, respectively. The inhibition at 127 µM in test [2] (Trypanosoma cruzi, 2 h, read-out: mean inhibition of incorporation of EdU into the parasite DNA) amounted to 72 ± 8.7%.

These data come from article PMC7112222, “Investigation of pyrimidine nucleoside analogues as chemical probes to assess compound effects on the proliferation of Trypanosoma cruzi intracellular parasites” (PLoS Neglected Tropical Diseases, 2020).
